Measurements reported in US20240262814A1, “MODULATORS OF TREX1” (Constellation Pharmaceuticals, Inc., priority 2021, published 2024).

How the values were obtained:
human TREX2 = target: T1, human TREX2 (Homo sapiens, UniProt Q9BQ50); assay: hTREX2 Biochemical Assay (selectivity hTREX1 vs hTREX2); conditions: biochemical selectivity for hTREX1 vs hTREX2
T1 construct: human TREX2 (residues M44-A279, expressed in E. coli); made in house; host or cells: E. coli
T1 sequence (Q9BQ50 44-279 isoform Q9BQ50-1): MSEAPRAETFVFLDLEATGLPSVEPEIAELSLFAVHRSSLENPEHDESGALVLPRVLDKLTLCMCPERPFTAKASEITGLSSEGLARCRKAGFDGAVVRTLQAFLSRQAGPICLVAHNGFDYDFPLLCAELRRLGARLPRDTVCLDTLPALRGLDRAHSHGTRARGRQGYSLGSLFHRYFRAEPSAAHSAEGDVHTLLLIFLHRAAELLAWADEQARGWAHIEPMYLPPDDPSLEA
Procedure, shortened: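 His-Tev-tagged human TREX2 (M44-A279, E. coli-expressed) preincubated with compound (10-point dose-response) for 4 h at 25 °C in Tris pH 7.4 buffer with 5 mM MgCl2. Reaction then run with 60 nM TEX615/quencher dsDNA and 50 pM enzyme (1% DMSO) for 18 h at 25 °C and EDTA-quenched. Fluorescence read at 615 nm (ex 570 nm); IC50 by four-parameter fit against pre-quenched and no-inhibitor controls.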

mouse TREX1 = target: T2, mouse TREX1 (Mus musculus, UniProt Q91XB0); assay: mTREX1 Biochemical Assay (fluorescence, dsDNA substrate degradation); conditions: full length mouse TREX1, 4 h pre-incubation, 18 h reaction at 25° C.
T2 construct: N-terminally His-Tev tagged full length mouse TREX1; made in house; host or cells: E. coli
T2 sequence (Q91XB0 1-314): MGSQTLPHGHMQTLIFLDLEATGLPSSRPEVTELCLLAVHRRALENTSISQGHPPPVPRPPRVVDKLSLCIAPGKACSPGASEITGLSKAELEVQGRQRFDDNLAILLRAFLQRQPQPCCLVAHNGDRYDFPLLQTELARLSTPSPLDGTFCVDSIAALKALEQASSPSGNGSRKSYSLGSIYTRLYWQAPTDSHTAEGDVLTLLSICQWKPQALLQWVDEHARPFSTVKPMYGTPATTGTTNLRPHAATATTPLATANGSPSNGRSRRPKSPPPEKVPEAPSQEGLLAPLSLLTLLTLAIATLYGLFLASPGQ
Procedure, shortened: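 Full-length His-Tev mouse TREX1 (E. coli) was preincubated with compound 4 h at 25 °C, then run 18 h at 25 °C. Finals were 6 pM enzyme, 60 nM TEX615/quencher dsDNA, 1% DMSO, pH 7.4 Tris with 5 mM MgCl2. After EDTA quench, fluorescence was read at 615 nm; IC50 by four-parameter fit against EDTA and no-inhibitor controls.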

human TREX1 = target: T3, human TREX1 (Homo sapiens, UniProt Q9NSU2); assay: hTREX1 Biochemical Assay (fluorescence, dsDNA substrate degradation); conditions: full length human TREX1, 4 h pre-incubation, 18 h reaction at 25° C.
T3 construct: N-terminally His-Tev tagged full length human TREX1; made in house; host or cells: E. coli
T3 sequence (Q9NSU2 1-314): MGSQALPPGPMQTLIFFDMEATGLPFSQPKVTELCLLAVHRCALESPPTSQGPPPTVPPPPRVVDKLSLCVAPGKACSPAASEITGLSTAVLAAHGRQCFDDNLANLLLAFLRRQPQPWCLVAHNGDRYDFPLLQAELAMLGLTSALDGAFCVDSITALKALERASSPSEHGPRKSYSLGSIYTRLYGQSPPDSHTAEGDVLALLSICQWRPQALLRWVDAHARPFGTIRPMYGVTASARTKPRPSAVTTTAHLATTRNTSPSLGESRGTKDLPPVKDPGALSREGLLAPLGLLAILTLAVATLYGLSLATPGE
Procedure, shortened: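 His-Tev-tagged full-length E. coli-expressed enzyme (4 pM final) preincubated with compound 4 h at 25° C., then 60 nM quenched-fluorophore dsDNA added in Tris pH 7.4, 5 mM MgCl2, 1% DMSO. After 18 h at 25° C., EDTA-quenched; fluorescence 615 nm (ex 570 nm); IC50 from four-parameter fit versus EDTA and no-inhibitor controls.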

Structure (SMILES)	hTREX1 vs hTREX2 selectivity (human TREX2)	IC50 (mouse TREX1) [nM]	IC50 (human TREX1) [nM]
C[C@H](c1nc(C(=O)Nc2cnoc2)c(O)c(=O)n1C)[C@H](c1ccccc1)c1ccccc1C(F)(F)F (single isomer, unassigned) [Example 14 Isomer 4, 5-Hydroxy-N-(isoxazol-4-yl)-1-methyl-6-oxo-2-(1-phenyl-1-(2-(trifluoromethyl)phenyl)propan-2-yl)-1,6-dihydropyrimidine-4-carboxamide]	B (B = 25 to 50 fold selective for hTREX1)	> 10	1 to 10
Cn1c([C@@H](CF)C(c2ccccc2)c2ccccc2)nc(C(=O)Nc2cnoc2)c(O)c1=O (single isomer, unassigned) [Example 18 Isomer 1, 2-(3-fluoro-1,1-diphenylpropan-2-yl)-5-hydroxy-N-(isoxazol-4-yl)-1-methyl-6-oxo-1,6-dihydropyrimidine-4-carboxamide]	A (A = <25 fold selective for hTREX1)	> 10	10 to 100
CC(c1nc(C(=O)Nc2cnoc2)c(O)c(=O)n1C)C(c1ccccc1)c1ccc(F)cc1C#N (single isomer, unassigned) [Example 7 Isomer 4]	B (B = 25 to 50 fold selective for hTREX1)	1 to 10	< 1
CC(c1nc(C(=O)Nc2cnoc2)c(O)c(=O)n1C)C(c1ccccc1)c1ccc(F)cc1C#N (single isomer, unassigned) [Example 7 Isomer 2]	A (A = <25 fold selective for hTREX1)	> 10	> 100
Cn1c(CC(c2ccccc2)c2ccccc2)nc(C(=O)Nc2cnoc2)c(O)c1=O [Example A, 2-(2,2-diphenylethyl)-5-hydroxy-N-(isoxazol-4-yl)-1-methyl-6-oxo-1,6-dihydropyrimidine-4-carboxamide]	A (A = <25 fold selective for hTREX1)	> 10	> 100
CC(c1nc(C(=O)Nc2cnoc2)c(O)c(=O)n1C)C(c1ccc(F)c(F)c1)c1ccccc1C#N (single isomer, unassigned) [Example 12 Isomer 3]	B (B = 25 to 50 fold selective for hTREX1)	< 1	< 1
CC(c1nc(C(=O)Nc2cnoc2)c(O)c(=O)n1C)C(c1ccc(F)c(F)c1)c1ccccc1C#N (single isomer, unassigned) [Example 12 Isomer 1]	C (C = >50 fold selective for hTREX1)	> 10	1 to 10
CC(c1nc(C(=O)Nc2cnoc2)c(O)c(=O)n1C)C(c1ccccc1)c1cc(F)ccc1C#N (single isomer, unassigned) [Example 6 Isomer 3]	A (A = <25 fold selective for hTREX1)	> 10	> 100

The remaining lines, values ahead:

hTREX1 vs hTREX2 selectivity (human TREX2)	IC50 (mouse TREX1) [nM]	IC50 (human TREX1) [nM]	Structure (SMILES)
A (A = <25 fold selective for hTREX1)	> 10	> 100	C[C@H](c1nc(C(=O)Nc2cnoc2)c(O)c(=O)n1C)C(c1ccccc1Cl)c1ccccc1Cl (single isomer, unassigned) [Example 15 Isomer 2, 2-(1,1-bis(2-chlorophenyl)propan-2-yl)-5-hydroxy-N-(isooxazol-4-yl)-1-methyl-6-oxo-1,6-dihydropyrimidine-4-carboxamide]
A (A = <25 fold selective for hTREX1)	> 10	10 to 100	CC(c1nc(C(=O)Nc2cnoc2)c(O)c(=O)n1C)C(c1ccc(F)c(F)c1)c1ccccc1C#N (single isomer, unassigned) [Example 12 Isomer 4]
A (A = <25 fold selective for hTREX1)	> 10	> 100	C[C@H](c1nc(C(=O)Nc2cnoc2)c(O)c(=O)n1C)[C@H](c1ccccc1)c1ccccc1Cl (single isomer, unassigned) [Example 2 Isomer 4, 2-(1-(2-chlorophenyl)-1-phenylpropan-2-yl)-5-hydroxy-N-(isoxazol-4-yl)-1-methyl-6-oxo-1,6-dihydropyrimidine-4-carboxamide]
C (C = >50 fold selective for hTREX1)	1 to 10	< 1	CC(c1nc(C(=O)Nc2cnoc2)c(O)c(=O)n1C)C(c1ccc(F)cc1F)c1ccccc1C#N (single isomer, unassigned) [Example 13 Isomer 2]
